The values below come from patent US20090023589A1, “METHODS FOR IDENTIFYING CONDITIONS AFFECTING A CELL STATE” (priority 2004, published 2009).

The experiment deals with HL-60 cells. The experiment can be described thus: Surface marker expression profile of HL-60 cells after combinatorial differentiation (flow cytometry, percent positive cells, hierarchical clustering). The following applies: for expression of cell surface marker CD 125w: med concentrations, sodium butyrate at pH 7.8; for monocyte signature profile (CD 14hi, CD11b/Mac-1hi, CD 13+, CD66b-): binary and ternary combinations, clustering on myeloid markers. The experiment is classed as cell-based.

Experimental: HL-60 cells were used to study what factors are involved in cellular differentiation. At day 0, the cells were plated in wells using a 96 well plate at a seeding density of approximately 60,000 cells, appropriate cell media was added. […] Cells were induced with the factors in Table 1 and 2. At day 4, the cells were harvested and labeled with antibody (see Table 3) for cytometry. The labeling was accomplished by washing the cells with PBS (phosphate buffered saline). Then gamma globulin was used to block non-specific binding sites. The gamma globulin treatment lasted for approximately 20 minutes at room temperatures on a rocker shaker.
The antibody cocktail concentration for each antibody used was based on manufacturer's instruction adjusted for final cell number. The antibody cocktail was incubated for 30 minutes at room temperature on rocking shaker. Following the incubation, the cells were washed using PBS. The cells were resuspended in 1% ultrapure methanol free formaldehyde and refrigerated until analysis. The cells were analyzed using a BD FACSCalibur equipped with a high throughput sampler (HTS) which has a dual laser excitation line: argon (488 nm) and red diode (635 nm).
The positive control for these experiments was 100 nm vitamin D3 plus CD 14 antibody. The negative controls were (1) untreated cells plus antibody cocktails located on the plates; and (2) fresh untreated cells plus antibody cocktails located on separate plates.
HL-60 cells were exposed to five well studied chemical differentiation factors (dimethylsulfoxide (DMSO), Vitamin D3, Phorbol-12-myristate-13-acetate (PMA), Sodium butyrate+pH 7.8, and all-Trans Retinoic Acid (ATRA)) known to promote differentiation along three distinct pathways (neutrophil, monocyte, eosinophil/basophil) within the myeloid lineage. Differentiation was induced by creating binary and ternary five factor combinations using the five factors at three concentrations for the binary experiment and two concentrations for the ternary experiment.
To observe experiment-wide profiles of marker expression, we used the percentage of positive cells for all markers and constructed a profile for each combinatorial treatment. Hierarchical clustering orders the data so that the most similar profile are next to each other in the plot.
To refine cluster analysis with relevant information, one can choose specific cell surface markers. In order to test the validity of the experiment, we clustered based on cell surface markers known to be expressed in the myeloid lineage: CD66b, CD11b/Mac-1, CD13+CD 14 (FIG. 8 a,b). Cells which have differentiated toward the monocytic lineage have a CD 14^hi, CD11b/Mac-1^hi, CD 13^+, CD66b^− expression profile.

`C[S+](C)[O-]` [DMSO, dimethylsulfoxide]: the “expression of cell surface marker CD 125w” value is on record as “neither DMSO^med nor sodium butyrate^med, pH 7.8 alone produced cells positive for CD 125w”.

`CCCCCCCCCCCCCC(=O)O[C@@H]1[C@@H](C)[C@@]2(O)[C@@H](C=C(CO)C[C@]3(O)C(=O)C(C)=C[C@@H]23)[C@@H]2C(C)(C)[C@]12OC(C)=O` [PMA, Phorbol-12-myristate-13-acetate]: the “monocyte signature profile (CD 14hi, CD11b/Mac-1hi, CD 13+, CD66b-)” value was “contributed to the monocyte signature profile”.

`C=C1CC[C@H](O)C/C1=C/C=C1\CCC[C@]2(C)[C@@H]([C@H](C)CCCC(C)C)CC[C@@H]12` [Vitamin D3]: the “monocyte signature profile (CD 14hi, CD11b/Mac-1hi, CD 13+, CD66b-)” value is listed as “contributed to the monocyte signature profile”.

As to `CCCC(=O)[O-].[Na+]` [sodium butyrate, Sodium butyrate], the “expression of cell surface marker CD 125w” value is reported as “neither DMSO^med nor sodium butyrate^med, pH 7.8 alone produced cells positive for CD 125w”.
